Ends that are not written are not given here.
How the values were obtained:
Format in all cases: cell-based, human
[1] = tested on: CD4+ or CD8+ T cells from HIV+ subjects; experiment: Intracellular cytotoxin staining (ICS), CD4+ or CD8+ T cells from HIV+ responders
Procedure: Briefly, 1×10^6PBMCs (freshly isolated) are stimulated with 20 μg of peptides for 6 hours in a total volume of 200 μL in a 96-well plate in presence of Golgi transport inhibitor (37° C., 5% CO2). […] Cells were stained with the LIVE/DEAD® fixable yellow dye (Invitrogen, Eugene, Oreg.). […] The flow cytometry data is collected using BD LSRII and analyzed with the FACS DIVA software.
The cells were subsequently fixed and permeabilized with Cytofix/Cytoperm solution (BD Biosciences) before reaction with anti-cytotoxin antibodies. The antibodies consisted of anti-CD3 APC-H7, anti-CD4 BD Horizon V450, and anti-CD8 FITC followed by anti-GrzB Alexa 700 and anti-GrzA PE (all from BD Biosciences), and anti-perforin PerCP (Abcam, Boston, Mass.).
(§1) In both analyses, 1.0-2.0×10^4 cells were fixed in phosphate-buffered saline (PBS) containing 2% paraformaldehyde and analyzed on BD LSRII using […] Software (BD Biosciences), with a positive threshold of 3% CFSE^low for CFSE-proliferation and 1% T cells expressing cytotoxin for ICS. The final value for each subject was derived after subtraction of the subject's medium control and the average value of peptide-stimulated cells from uninfected control subjects.
Flow cytometry (FACS) for measuring CFSE-proliferation and intracellular cytokine staining (ICS).
Both analyses were performed with BD LSRII and […]™ Software (BD Biosciences), using a positive threshold of >1% CFSE^low for CFSE-proliferation except for ICS studies with threshold of >0.1% T cells expressing cytotoxin.

[2] = tested on: CD4+ T cells from HIV+ subjects; experiment: Intracellular cytotoxin staining (ICS), CD4+ T cells from HIV+ subjects; parameters: key to CD4^+ T-cell cytotoxins (4C): positive (+); negative (−) response; inhibitory (↓); not done (n); conditions: HIV^+ subjects compared to HIV^− control group
Procedure: (§2) Briefly, 1×10^6PBMCs (freshly isolated) are stimulated with 20 μg of peptides for 6 hours in a total volume of 200 μL in a 96-well plate in presence of Golgi transport inhibitor (37° C., 5% CO2). The cells are processed as previously described (Horton et al. (2007)). Cells were stained with the LIVE/DEAD® fixable yellow dye (Invitrogen, Eugene, Oreg.). The monoclonal antibodies fluorochome-conjugated to human cytokines used are: APC-H7 to CD3 (clone SK7); BD Horizon V450 to CD4 (clone RPA-T4); Qdot to CD8 (clone 3B5); PE-cy7 to IFN-γ (clone 4S.B3); APC to IL-2 (clone MQ1-17H12) PerCP to perforin (clone B-D48); Alexa F1.700 to granzyme-B (clone GB11) and PE to granzyme-A (clone CB9). The flow cytometry data is collected using BD LSRII and analyzed with the FACS DIVA software.
(§3) The ICS analysis (Horton et al. (2007)) involved stimulating 0.5-1.0×10^6 freshly isolated PBMC for 6 h with the same peptide stimulant and culture conditions as the proliferation analysis in the presence of 1 μg/mL of Golgi transport inhibitor and monensin followed by labeling with LIVE/DEAD fixable yellow dye and then treatment with anti-CD16/CD32 antibody and T-cell phenotypic antibodies. The cells were subsequently fixed and permeabilized with Cytofix/Cytoperm solution (BD Biosciences) before reaction with anti-cytotoxin antibodies. The antibodies consisted of anti-CD3 APC-H7, anti-CD4 BD Horizon V450, and anti-CD8 FITC followed by anti-GrzB Alexa 700 and anti-GrzA PE (all from BD Biosciences), and anti-perforin PerCP (Abcam, Boston, Mass.).
as §1
(§4) Flow cytometry (FACS) for measuring CFSE-proliferation and intracellular cytokine staining (ICS). Carboxyfluorescein diacetate succinimide ester (CFSE)-proliferation analysis was performed according to the manufacturer's protocol (Invitrogen) and processed as previously described (Lichterfeld et al. 2004) using the following modification: 2.5-5.0×10^5 CFSE-labeled PBMC stimulated for 4-5 days (37° C., 5% CO2) with 15-30 μg of peptides in culture media (AIM V medium, 25 μg/mL gentamycin, and 10% heat-inactivated fetal bovine serum). The ICS analysis was performed as previously described (Horton et al. 2007; Pattacini et al. 2012).
(§5) The antibodies used for the proliferation analysis consisted of anti-CD4 allophycocyanin (APC) anti-CD3 APC-H7, and anti-CD8 Pacific Blue, and those for ICS were anti-CD3 APC-H7, anti-CD4 BD Horizon V450, anti-CD8 FITC, anti-granzyme B (GrzB) Alexa 700, anti-granzyme A (GrzA) PE (BD Biosciences, Cat #555349, 560176, 558207, 560345, 555366, 560213, 558904), and anti-perforin PerCP (Abcam, Cat #ab86319). Both analyses were performed with BD LSRII and […]™ Software (BD Biosciences), using a positive threshold of >1% CFSE^low for CFSE-proliferation except for ICS studies with threshold of >0.1% T cells expressing cytotoxin. The final value for each subject was derived after subtracting the result of each HIV^+ subject with the media control followed by subtraction with the average response of the media-control subtracted HIV^− subjects.

[3] = tested on: CD8+ T cells from HIV+ subjects; experiment: Intracellular cytotoxin staining (ICS: perforin, GrzA, GrzB, CD107a), CD8+ T cells from HIV+ subjects; parameters: key to CD8^+ T-cell cytotoxins (8C): positive (+); negative (−) response; inhibitory (↓); not done (n); conditions: for CD8^+ T-cell cytotoxins (8C): HIV^+ subjects compared to HIV^− control group
Procedure: as §2, §3, §1, §4, §5

[4] = tested on: CD3+CD8+ T cells from HIV+ subjects; experiment: CFSE-proliferation, CD3+CD8+ T cells from HIV+ subjects; conditions: positive responses over total tested; F3 responders (H3 responders for H3-3)
Procedure: 2×10^5-5×10^5 CFSE labeled PBMCs were incubated with 15-20 μg of peptides in 600 μL of RPMI media with 10% FBS for 5 days at 37° C. (5% CO2). After harvesting, they were labeled with allophycocyanin (APC), APC-H7, and Pacific Blue labeled monoclonal antibodies (MAb) to human CD3, CD4, and CD8, respectively and analyzed for T-cell proliferation by flow cytometry using BD LSRII (BD Biosciences). The proliferating CD4^+ or CD8^+ T cell populations were defined from the CD3^+ cell population as either CD3^+CD8^+ or CD3^+CD4^+T cells (mutually exclusive) with low CFSE (CFSE^low) staining.
Flow cytometry (FACS) for carboxyfluoresein diacetate succinimide ester (CFSE)-proliferation and intracellular cytotoxin staining (ICS). The CFSE-proliferation analysis was performed on PBMC according to the manufacturer's protocol (Invitrogen, Carlsbad, Calif.) and processed as previously described (Lichterfeld et al. (2004)). Modifications consisted of using 2.0-5.0×10^5 CFSE-labeled cells stimulated for 5 days (37° C., 5% CO^2) with 30 μg/well of total peptides in a pool (15 μg/well for individual peptide, Table 10) or 5 μg/mL PHA in AIM V medium containing 25 μg/mL of gentamycin and 10% heat-inactivated human serum. Subsequently these cells were harvested and labeled with the LIVE/DEAD fixable yellow dye (Invitrogen) and then treated 5 min with anti-CD16/CD32 antibody (Biolegend, San Diego, Calif.) for blocking non-specific binding before phenotype-specific antibodies. The following antibodies were used for the CFSE-proliferation analysis: anti-CD4 APC, anti-CD3 APC-H7, and anti-CD8 Pacific Blue (BD Biosciences, San Jose, Calif.).
as §1, §4, §5

PBMC from HIV+ subjects = experiment: IFNγ ELISpot, PBMC from HIV+ subjects; conditions: positive responses over total tested; F3 responders (H3 responders for H3-3)
Procedure: 1.0×10^5-2.0×10^5 PBMCs were stimulated with peptides (15 μg peptide/well) in ELISpot plates for 18 hours in AIMS V medium (at 10% normal human serum). The spots were counted with an ELISpot reader and adjusted to spot forming units (SFU) per 10^6 cells.
Positive reactivity was defined at ≥70 SFU/10^6 cells after subtracting the background derived from non-specific peptide control or media control, and the average of 3 HIV-1 negative controls (<30 SFU/10^6 cells).
ELISpot assays. Enzyme-linked immunosorbent spot assays (ELISpot) for IFNγ (R&D Systems, Minneapolis, Minn.) were performed with AIM V medium containing 5% heat-inactivated (56° C., 30 min) human serum as previously described (Abbott et al. (2012)). The PBMC from HIV+ subjects were stimulated with either peptide pool (4-5 consecutive peptides per pool at 5 μg per peptide) or individual peptide (15 μg/well). The peptides were 11-16 aa in length with 8-10 aa overlap. The results were analyzed with an ELISpot reader (MVS Pacific LLC, Minneapolis, Minn.) and adjusted to spot forming units (SFU) per 10^6 cells, after subtraction of the average medium control for each subject. The PBMC from HIV+ subjects were stimulated with T-cell mitogen, phytohemaglutinin A (PHA, 5 μg/mL), as positive control. At a positive threshold of 70 SFU, HIV− subjects had no substantial IFNγ responses (>50 SFU) to HIV and FIV peptide pools.
ELISpot assays. Human enzyme-linked immunosorbent spot assays (ELISpot) (R&D Systems, Cat #XEL285) which measure IFNγ production were performed (Abbott et al. 2011). The positive threshold for human IFNγ responses was >50 spot forming units (SFU)/10^6 cells. The final value for each subject was derived after subtracting the result of each HIV^+ subject with the media control followed by subtraction with the average response of the HIV^− subjects which was rarely more than 10 SFU.

Substance | CD8^+ T Proliferation (positive/total) [4] | IFNγ (positive/total) (PBMC from HIV+ subjects) | further results
KLYLKQSLSIANA [Fp14-4] | – | – | cytotoxin and CD107a expression in CD4+ and CD8+ T cells (in words) ([1]; p24 peptides): high frequency of cytotoxin expression; CD4^+ T-cell cytotoxins (4C) [2]: +; cytotoxin expression / CTL-associated activity in CD8+ T cells (in words) [3]: highest frequency and levels; CD8^+ T-cell cytotoxins (8C) [3]: +; HIV+ subjects whose CD8+ T cells responded with one or more cytotoxins ([3]; five HIV+ subjects, individual 13-15mer peptides): five
FIV F3-3m1 (KKKDSGKWRMLIDFR) | 1/5 | 0/9 | –
DQEQNTAEVKLYLK [Fp14-1] | – | – | Cytotoxins ([1]; responders to Fp9 or Fp14 peptide pools): High Cytototoxins (The cytotoxin result is considered high when four or five subjects express one or more cytotoxins in the CD8^+ T cells); CD4^+ T-cell cytotoxins (4C) [2]: +; CD8^+ T-cell cytotoxins (8C) [3]: +
FIV 3-3 (WV9) (WRMLIDFRV) | 1/6 | 8/11 | –
FIV F3-3m2 (KKKDSGKWRMLIDFRV) | 2/5 | 7/9 | –
FIV 3-3 (KR9) (KWRMLIDFR) | 0/6 | 1/9 | –
FIV F3-3m6 (KKKSTKWRMLIDFRV) | 2/5 | 7/9 | –
FIV F3-3 (KKKSGKWRMLIDFRV) | 6/9 | 13/13 | –
FIV F3-3m4 (KKKSTKWRKLIDFRV) | 0/5 | 0/9 | –

From US10905757B2, “Cross-reactive T cell epitopes of HIV, SIV, and FIV for vaccines in humans and cats” (priority 2012, dated 2021)
